Reference: publication PMC10958501, “4-Oxypiperidine Ethers as Multiple Targeting Ligands at Histamine H3 Receptors and Cholinesterases” (ACS Chemical Neuroscience, 2024)

Biological target: T1, hH3R (Homo sapiens, UniProt Q9Y5N1)
T1 construct: expressed in transfected cells; membrane fractions
Test: hH3R radioligand displacement assay in membrane fractions of HEK-293 cells
Type: binding
Conditions: [3H]Nα-methylhistamine displacement, HEK-293 membranes; 95% CI in brackets
Protocol: The compounds were tested against H3R by an ex vivo assay using isolated guinea pig ileum electrically stimulated to contraction, according to Vollinga et al.[47] The pA2-values were calculated according to Arunlakshana and Schild.[59] The radioligand-displacement assay was performed in membrane fractions of HEK-293 cells stably expressing hH3R. Cell cultivation and membrane preparation were performed according to Kottke et al.[48] The Ki values were calculated from the IC50 values using the Cheng–Prusoff equation.[60] The statistical calculations were performed on −log(Ki). The mean values and 95% confidence intervals were transformed to nanomolar concentrations. The inhibitory activities toward AChE and BuChE of novel ADS compounds were assessed in a spectrophotometric Ellman’s assay using electric eel AChE (eeAChE) and equine BuChE (eqBuChE).[57] Intracellular cAMP accumulation was measured with a homogeneous TR-FRET immunoassay using the LANCE Ultra cAMP kit (PerkinElmer) and HEK293 cells stably expressing the human histamine H3 receptor.[61] A more detailed description of the biological methods is presented in the Supporting Information. […]
considered statistically significant. The pA2 values were compared with the affinity of thioperamide (Sigma-Aldrich, St. Louis, MO, USA).
3.2. hH 3R radioligand displacement binding assay.
The radioligand displacement binding assay was performed in membrane fractions of HEK-293 cells stably expressing hH3R. Cell cultivation and membrane preparation was performed according to Kottke et al 6. For the radioligand displacement assay, radioactively labeled […]
assay volume was set to 200 µL. The compounds were tested in several appropriate concentrations between 100 µM and 0.1 nM. Pipetting was partly done by Freedom Evo® (Tecan). Pitolisant was used to determine non-specific binding at a concentration of 10 µM.
The membrane fraction (20 µg/well), test compounds, and radiolabeled ligand were incubated for 90 minutes at 25 °C while shaking. The bound radioligand was separated from the free radioligand by filtration through GF/B filters pre-treated with 0.3 % (m/v) polyethyleneimine using a cell harvester. Radioactivity was determined by liquid scintillation counting using a MicroBeta® Trilux (Perkin Elmer). The data was obtained in duplicates in at least three independent experiments. Non-specific binding was subtracted from the raw data to calculate specific binding values. The evaluation was performed with GraphPad Prism 6.1 (San Diego, CA, USA) using non-linear regression (one-site competition with a logarithmic scale). The Ki values were calculated from the IC50 values using the Cheng-Prusoff equation 7. The statistical calculations were performed on –log(Ki). […]

T1 sequence (Q9Y5N1 whole entry): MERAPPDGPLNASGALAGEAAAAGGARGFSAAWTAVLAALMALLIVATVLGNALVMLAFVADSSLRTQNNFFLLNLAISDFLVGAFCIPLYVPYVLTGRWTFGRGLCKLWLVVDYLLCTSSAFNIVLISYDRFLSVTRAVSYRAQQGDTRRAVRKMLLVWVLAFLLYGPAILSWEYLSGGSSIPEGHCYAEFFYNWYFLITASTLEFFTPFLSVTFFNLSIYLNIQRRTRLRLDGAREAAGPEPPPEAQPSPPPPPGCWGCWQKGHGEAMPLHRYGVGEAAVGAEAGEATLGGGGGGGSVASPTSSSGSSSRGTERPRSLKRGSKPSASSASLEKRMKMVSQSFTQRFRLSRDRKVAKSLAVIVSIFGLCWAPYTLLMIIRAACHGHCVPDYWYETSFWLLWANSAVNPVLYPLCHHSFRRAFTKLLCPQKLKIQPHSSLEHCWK

CCCN(C)Cc1ccc2cc(COC3CCN(Cc4ccccc4)CC3)ccc2c1 [ADS031, N-((6-(((1-Benzylpiperidin-4-yl)oxy)methyl)naphthalen-2-yl)methyl)-N-methylpropan-1-amine]
Ki: 12.5 nM
